The results in this text go back to US20110044969A1, “Antimicrobial Agents for the Treatment of Campylobacter Species in the Crop of a Bird” (NOFIMA MAT AS, priority 2008, published 2011).

The assay concerns C. jejuni strain 484, strain 523 and strain 534. The note with it: pH 6.0 and 6.5; acid 0.1, 0.01, 0.001, 0.0001%; 48 hours at 42° C. microaerophilic; growth by spectrophotometer; all three strains.

Method: Three C. jejuni strains were compared in vitro for sensitivity for benzoic acid and sorbic acid at two different pH values. These strains were C. jejuni strain 484 (from poultry leg), C. jejuni strain 523 (from poultry faeces), and C. jejuni strain 534 (from poultry faeces). Different combinations of pH (6.0 and 6.5) and concentrations of the acids (0.1, 0.01, 0.001, and 0.0001%) were tested in Mueller-Hinton broth (MH) with supplement for Campylobacter (SR232E; Oxoid Ltd., Basingstoke, UK). The strains were incubated in microaerophilic atmosphere for 48 hours at 42° C., and growth was measured by spectrophotometer.
Three C. jejuni strains were tested for in vitro growth at different combinations of pH (6.0 and 6.5) and concentrations of sorbic- and benzoic acid (0.1, 0.01, 0.001, and 0.0001%).

For the compound `C/C=C/C=C/C(=O)O` [sorbic acid], the “in vitro growth reduction of C. jejuni” value is “highest growth reduction”.
